From PMC8596125, “Self‐Stabilized Supramolecular Assemblies Constructed from PEGylated Dendritic Peptide Conjugate for Augmenting Tumor Retention and Therapy” (Advanced Science, 2021)

Tested on: 4T1 cells
Assay: In vitro cellular uptake (flow cytometry, CLSM)
Format: cell-based, mouse
Conditions: 1 µg Ppa mL-1, 2, 6 and 24 h
Method: CCK-8 assay. 5×103 L02 normal cells per well were seeded in a 96-well plate, and then treated by Ppa and SSAs for 24 h incubation or PDP for 24 h and 48 h incubation.
Cell viability of each group was obtained through the same process.
1.3.9 In vitro cellular uptake
To determine cellular uptake and intracellular distribution of SSAs, 4T1 cells (2×104) were seeded on each glass coverslip to allow attachment, and incubated with Ppa and PDPP for 1 h, 3 h and 6 h, while Ppa was used as a control. After nuclear staining by Hoechst 33258, cells were washed by PBS and then observed under a confocal laser scanning microscopy (CLSM) (excitation and emission wavelengths:
630 nm and 678 nm), and images were captured by Leica Confocal Software.
For quantitative characterization of uptake of SSAs by cells, 4T1 cells were seeded in 6 well plates at 1×10^5 cells per well and incubated for 2 h, 6 h and 24 h. After the spent medium was replaced with fresh one, cells were treated by Ppa and SSAs at an equivalent concentration of 1 μg Ppa mL-1 for pre-specified times. Cells were then washed with PBS twice, harvested, and suspended in 100 μL of PBS for flow cytometer analyses. 20,000 events were collected and Flowjo software was used for generating each histogram.
For TEM, 4T1 cells cultured in 6 cm dishes were incubated with Ppa and SSAs. […]

In the case of `C=Cc1c(C)c2cc3nc(c4c5[nH]c(cc6nc(cc1[nH]2)C(C)=C6CC)c(C)c5C(=O)C4)[C@@H](CCC(=O)O)[C@@H]3C` [Ppa, pyropheophorbide a], the Cellular uptake is reported as “better uptake efficiency compared with SSAs”.
